Assay results: patent publication US20100298141A1, “SUBSTITUTED PYRIDINE N-OXIDE HERBICIDES” (E. I. DU PONT DE NEMOURS AND COMPANY, priority 2007, published 2010)

Columns and labels:
[1] = system: blackgrass; assay: Test C pre-/postemergence test; format: in vivo, Alopecurus myosuroides; conditions: Postemergence; for Plant response rating, Blackgrass: scale 0 to 100, 0 no effect, 100 complete control
Source text: (§1) Seeds of plant species selected from blackgrass (Alopecurus myosuroides), downy brome (Bromus tectorum), green foxtail (Setaria viridis), Italian ryegrass (Lolium multiflorum), wheat (Triticum aestivum), wild oat (Avena fatua), catchweed bedstraw (Galium aparine), Russian thistle (Salsola kali), […] (Cynodon dactylon), Surinam grass (Brachiaria decumbens), cocklebur (Xanthium strumarium), corn (Zea mays), crabgrass (Digitaria sanguinalis), woolly cupgrass (Eriochloa villosa), giant foxtail (Setaria faberii), Goosegrass (Eleusin indica), johnsongrass (Sorghum halepense), kochia (Kochia scoparia), lambsquarters (Chenopodium album), morningglory (Ipomoea coccinea), eastern black nightshade (Solanum ptycanthum), yellow nutsedge (Cyperus esculentus), pigweed (Amaranthus retroflexus), common ragweed (Ambrosia elation), soybean (Glycine max), common (oilseed) sunflower (Helianthus annuus), and velvetleaf (Abutilon theophrasti) were planted and treated preemergence with test chemicals formulated in a non-phytotoxic solvent mixture which included a surfactant. At the same time, plants selected from these crop and weed species and also winter barley (Hordeum vulgare), canarygrass (Phalaris minor), and chickweed (Stellaria media) were treated with postemergence applications of some of the test chemicals formulated in the same manner. Plants ranged in height from 2 to 18 cm (1- to 4-leaf stage) for postemergence treatments. […] At time of treatment, test pots were flooded to 3 cm above the soil surface, treated by application of test compounds directly to the paddy water, and then maintained at that water depth for the duration of the test. […] A dash (-) response means no test result.

[2] = system: duck salad; assay: Test C flooded paddy test; format: in vivo, Heteranthera limosa; conditions: Flood
In short: (§2)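 Greenhouse pots flooded to 3 cm above soil at time of treatment received compound via the water, which stayed at that level.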

[3] = system: crabgrass; assay: Test A pre-/postemergence greenhouse test; format: in vivo, Digitaria sanguinalis; conditions: for Crabgrass, Large plant response rating: 0 to 100 scale
In short: (§3)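 Pots of loam–sand soil sown with the test species are sprayed preemergence on the soil surface; emerged seedlings (1–2 leaves, 2–10 cm) are sprayed postemergence at the same time. The vehicle is a non-phytotoxic solvent mixture with surfactant. Injury is scored visually after ~10 d in greenhouse.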

[4] = system: common ragweed; assay: Test C pre-/postemergence test; format: in vivo, Ambrosia elation; conditions: Postemergence; for Plant response rating, Ragweed: scale 0 to 100, 0 no effect, 100 complete control
Source text: as §1

[5] = system: corn; assay: Test C pre-/postemergence test; format: in vivo, Zea mays; conditions: Postemergence; for Plant response rating, Corn: scale 0 to 100, 0 no effect, 100 complete control
Source text: as §1

[6] = system: green foxtail; assay: Test C pre-/postemergence test; format: in vivo, Setaria viridis; conditions: Postemergence; for Plant response rating, Foxtail, Green: scale 0 to 100, 0 no effect, 100 complete control
Source text: as §1

[7] = system: yellow nutsedge; assay: Test C pre-/postemergence test; format: in vivo, Cyperus esculentus; conditions: Postemergence; for Plant response rating, Nutsedge, Yellow: scale 0 to 100, 0 no effect, 100 complete control
Source text: as §1

[8] = system: Italian ryegrass; assay: Test C pre-/postemergence test; format: in vivo, Lolium multiflorum; conditions: Postemergence; for Plant response rating, Ryegrass, Italian: scale 0 to 100, 0 no effect, 100 complete control
Source text: as §1

[9] = system: wheat; assay: Test C pre-/postemergence test; format: in vivo, Triticum aestivum; conditions: Postemergence; for Plant response rating, Wheat: scale 0 to 100, 0 no effect, 100 complete control
Source text: as §1

[10] = system: woolly cupgrass; assay: Test C pre-/postemergence test; format: in vivo, Eriochloa villosa; conditions: Postemergence; for Plant response rating, Cupgrass, Woolly: scale 0 to 100, 0 no effect, 100 complete control
Source text: as §1

[11] = system: umbrella sedge; assay: Test C flooded paddy test; format: in vivo, Cyperus difformis; conditions: Flood
In short: as §2

[12] = system: wild oat; assay: Test C pre-/postemergence test; format: in vivo, Avena fatua; conditions: Postemergence; for Plant response rating, Oat, Wild: scale 0 to 100, 0 no effect, 100 complete control
Source text: as §1

[13] = system: redroot pigweed; assay: Test A pre-/postemergence greenhouse test; format: in vivo, Amaranthus retroflexus; conditions: for Pigweed plant response rating: 0 to 100 scale
In short: as §3

[14] = system: morningglory; assay: Test A pre-/postemergence greenhouse test; format: in vivo, Ipomoea spp.; conditions: for Morningglory plant response rating: 0 to 100 scale
In short: as §3

[15] = system: Goosegrass; assay: Test C pre-/postemergence test; format: in vivo, Eleusin indica; conditions: Postemergence; for Plant response rating, Goosegrass: scale 0 to 100, 0 no effect, 100 complete control
Source text: as §1

[16] = 31 g ai/ha, scale 0 to 100 (0 no effect, 100 complete control)
[17] = 62 g ai/ha, scale 0 to 100, 0 no effect, 100 complete control, 13 to 15 days
[18] = 125 g ai/ha, scale 0 to 100, 0 no effect, 100 complete control, 13 to 15 days
[19] = 250 g ai/ha, scale 0 to 100, 0 no effect, 100 complete control, 13 to 15 days
[20] = Postemergence, 125 g ai/ha, 0 is no effect, 100 is complete control
[21] = Postemergence, 500 g ai/ha, 0 is no effect, 100 is complete control
[22] = Preemergence, 125 g ai/ha, 0 no effect, 100 complete control
[23] = Preemergence, 500 g ai/ha, 0 to 100 scale where 0 is no effect and 100 is complete control

CC(c1c(C(F)(F)F)nn(C)c1Cl)S(=O)(=O)c1ccc(Cl)c[n+]1[O-] (racemic) [Compound 40]
80: Plant response rating, Ducksalad [2, 18] | Crabgrass, Large plant response rating [3, 20] | Crabgrass, Large plant response rating [3, 21] | Plant response rating, Morningglory [14, 23]
90: Plant response rating, Ducksalad [2, 19] | Plant response rating, Crabgrass, Large [3, 23]
60: Crabgrass, Large plant response rating [3, 22] | Pigweed plant response rating [13, 21] | Pigweed plant response rating [13, 22]
100: Plant response rating, Pigweed [13, 23]
20: Plant response rating, Ducksalad [2, 16] | Plant response rating, Sedge, Umbrella [11, 16]
40: Plant response rating, Ryegrass, Italian ([8]; 125 g ai/ha)
30: Pigweed plant response rating [13, 20] | Morningglory plant response rating [14, 21]
0: Plant response rating (0 to 100), Blackgrass ([1]; 31 g ai/ha) | Plant response rating, Blackgrass ([1]; 62 g ai/ha) | Plant response rating, Blackgrass ([1]; 125 g ai/ha) | Plant response rating, Blackgrass ([1]; 250 g ai/ha) | Plant response rating (0 to 100), Ragweed ([4]; 31 g ai/ha) | Plant response rating (0 to 100), Ragweed ([4]; 62 g ai/ha) | Plant response rating, Ragweed ([4]; 125 g ai/ha) | Plant response rating (0 to 100), Corn ([5]; 31 g ai/ha) | Plant response rating, Corn ([5]; 62 g ai/ha) | Plant response rating, Corn ([5]; 125 g ai/ha) | Plant response rating, Corn ([5]; 250 g ai/ha) | Plant response rating (0 to 100), Foxtail, Green ([6]; 31 g ai/ha) | Plant response rating, Foxtail, Green ([6]; 62 g ai/ha) | Plant response rating, Foxtail, Green ([6]; 125 g ai/ha) | Plant response rating (0 to 100), Nutsedge, Yellow ([7]; 31 g ai/ha) | Plant response rating, Nutsedge, Yellow ([7]; 62 g ai/ha) | Plant response rating, Nutsedge, Yellow ([7]; 125 g ai/ha) | Plant response rating, Nutsedge, Yellow ([7]; 250 g ai/ha) | Plant response rating (0 to 100), Ryegrass, Italian ([8]; 31 g ai/ha) | Plant response rating (0 to 100), Ryegrass, Italian ([8]; 62 g ai/ha) | Plant response rating (0 to 100), Wheat ([9]; 31 g ai/ha) | Plant response rating (0 to 100), Wheat ([9]; 62 g ai/ha) | Plant response rating, Wheat ([9]; 125 g ai/ha) | Plant response rating (0 to 100), Cupgrass, Woolly ([10]; 31 g ai/ha) | Plant response rating, Cupgrass, Woolly ([10]; 62 g ai/ha) | Plant response rating, Cupgrass, Woolly ([10]; 125 g ai/ha) | Plant response rating, Cupgrass, Woolly ([10]; 250 g ai/ha) | Plant response rating (0 to 100), Oat, Wild ([12]; 31 g ai/ha) | Plant response rating, Oat, Wild ([12]; 62 g ai/ha) | Plant response rating, Oat, Wild ([12]; 125 g ai/ha) | Morningglory plant response rating [14, 20] | Morningglory plant response rating [14, 22] | Plant response rating (0 to 100), Goosegrass ([15]; 31 g ai/ha) | Plant response rating, Goosegrass ([15]; 62 g ai/ha) | Plant response rating, Goosegrass ([15]; 125 g ai/ha) | Plant response rating, Goosegrass ([15]; 250 g ai/ha)
85: Plant response rating, Sedge, Umbrella [11, 19]
45: Plant response rating, Ducksalad [2, 17] | Plant response rating, Ryegrass, Italian ([8]; 250 g ai/ha) | Plant response rating, Sedge, Umbrella [11, 17]
75: Plant response rating, Sedge, Umbrella [11, 18]
5: Plant response rating, Ragweed ([4]; 250 g ai/ha) | Plant response rating, Foxtail, Green ([6]; 250 g ai/ha) | Plant response rating, Wheat ([9]; 250 g ai/ha) | Plant response rating, Oat, Wild ([12]; 250 g ai/ha)
